# Laboratory results: publication doi:10.1101/2024.08.19.608619, “Discovery of potent SARS-CoV-2 nsp3 macrodomain inhibitors uncovers lack of translation to cellular antiviral response” (bioRxiv, 2024)
# Experiment: Hepatic microsomal stability, HLM
# Format: in vitro ADME, human
# Settings: In vitro human liver microsomal stability
Compound,clint,perc_remaining,t_half
CC(C)[C@H](Nc1ncnc(N)c1Cl)c1ccc2c(c1)S(=O)(=O)CCC2 (racemic) [ASAP-0010739],79.0 µL/min/mg,27.0%,21.0 min
"CC(C)[C@H](Nc1ncnc2[nH]c(-c3cnn(CC(N)=O)c3)cc12)c1ccc2c(c1)OCCO2 (single isomer, unassigned) [ASAP-0008450]",238.0 µL/min/mg,2.0%,7.0 min
"CC(C)(C)[C@H](Nc1ncnc2[nH]c(-c3cnn(CC(N)=O)c3)cc12)c1ccc2c(n1)OCCO2 (single isomer, unassigned) [ASAP-0011159]",27.0 µL/min/mg,64.0%,60.8 min
"CC(C)[C@H](Nc1ncnc2[nH]cc(C(=O)NC3CC3)c12)c1ccc2c(c1)S(=O)(=O)CCC2 (single isomer, unassigned) [ASAP-0011247]",5.0 µL/min/mg,90.0%,320.1 min

# Same assay, conditions: In vitro human liver microsomal stability; no cofactor
row,Compound,perc_remaining_no_cofactor
1,CC(C)[C@H](Nc1ncnc(N)c1Cl)c1ccc2c(c1)S(=O)(=O)CCC2 (racemic) [ASAP-0010739],101.0%
2,"CC(C)[C@H](Nc1ncnc2[nH]c(-c3cnn(CC(N)=O)c3)cc12)c1ccc2c(c1)OCCO2 (single isomer, unassigned) [ASAP-0008450]",90.0%
3,"CC(C)(C)[C@H](Nc1ncnc2[nH]c(-c3cnn(CC(N)=O)c3)cc12)c1ccc2c(n1)OCCO2 (single isomer, unassigned) [ASAP-0011159]",95.0%
4,"CC(C)[C@H](Nc1ncnc2[nH]cc(C(=O)NC3CC3)c12)c1ccc2c(c1)S(=O)(=O)CCC2 (single isomer, unassigned) [ASAP-0011247]",112.0%

# Experiment: Hepatic microsomal stability, MLM
# Format: in vitro ADME
# Settings: In vitro mouse liver microsomal stability
Compound,clint,perc_remaining,t_half
CC(C)[C@H](Nc1ncnc(N)c1Cl)c1ccc2c(c1)S(=O)(=O)CCC2 (racemic) [ASAP-0010739],204.0 µL/min/mg,4.0%,8.2 min
"CC(C)[C@H](Nc1ncnc2[nH]c(-c3cnn(CC(N)=O)c3)cc12)c1ccc2c(c1)OCCO2 (single isomer, unassigned) [ASAP-0008450]",42.0 µL/min/mg,49.0%,40.0 min
"CC(C)(C)[C@H](Nc1ncnc2[nH]c(-c3cnn(CC(N)=O)c3)cc12)c1ccc2c(n1)OCCO2 (single isomer, unassigned) [ASAP-0011159]",10.0 µL/min/mg,88.0%,162.3 min
"CC(C)[C@H](Nc1ncnc2[nH]cc(C(=O)NC3CC3)c12)c1ccc2c(c1)S(=O)(=O)CCC2 (single isomer, unassigned) [ASAP-0011247]",42.0 µL/min/mg,50.0%,39.5 min

# Same assay, conditions: In vitro mouse liver microsomal stability, no cofactor
row,Compound,perc_remaining_no_cofactor
1,CC(C)[C@H](Nc1ncnc(N)c1Cl)c1ccc2c(c1)S(=O)(=O)CCC2 (racemic) [ASAP-0010739],102.0%
2,"CC(C)[C@H](Nc1ncnc2[nH]c(-c3cnn(CC(N)=O)c3)cc12)c1ccc2c(c1)OCCO2 (single isomer, unassigned) [ASAP-0008450]",98.0%
3,"CC(C)(C)[C@H](Nc1ncnc2[nH]c(-c3cnn(CC(N)=O)c3)cc12)c1ccc2c(n1)OCCO2 (single isomer, unassigned) [ASAP-0011159]",116.0%
4,"CC(C)[C@H](Nc1ncnc2[nH]cc(C(=O)NC3CC3)c12)c1ccc2c(c1)S(=O)(=O)CCC2 (single isomer, unassigned) [ASAP-0011247]",102.0%

# Experiment: LogD
# Settings: pH 7.4; In vitro LogD
row,Compound,logd
1,CC(C)[C@H](Nc1ncnc(N)c1Cl)c1ccc2c(c1)S(=O)(=O)CCC2 (racemic) [ASAP-0010739],2.4
2,"CC(C)[C@H](Nc1ncnc2[nH]c(-c3cnn(CC(N)=O)c3)cc12)c1ccc2c(c1)OCCO2 (single isomer, unassigned) [ASAP-0008450]",2.9
3,"CC(C)(C)[C@H](Nc1ncnc2[nH]c(-c3cnn(CC(N)=O)c3)cc12)c1ccc2c(n1)OCCO2 (single isomer, unassigned) [ASAP-0011159]",2.7
4,"CC(C)[C@H](Nc1ncnc2[nH]cc(C(=O)NC3CC3)c12)c1ccc2c(c1)S(=O)(=O)CCC2 (single isomer, unassigned) [ASAP-0011247]",3.0

# Experiment: In vitro kinetic solubility
# Settings: In vitro kinetic solubility, ph 7.4
row,Compound,solubility_mean
1,CC(C)[C@H](Nc1ncnc(N)c1Cl)c1ccc2c(c1)S(=O)(=O)CCC2 (racemic) [ASAP-0010739],≥ 400 µM
2,"CC(C)[C@H](Nc1ncnc2[nH]c(-c3cnn(CC(N)=O)c3)cc12)c1ccc2c(c1)OCCO2 (single isomer, unassigned) [ASAP-0008450]",332 µM
3,"CC(C)(C)[C@H](Nc1ncnc2[nH]c(-c3cnn(CC(N)=O)c3)cc12)c1ccc2c(n1)OCCO2 (single isomer, unassigned) [ASAP-0011159]",372 µM
4,"CC(C)[C@H](Nc1ncnc2[nH]cc(C(=O)NC3CC3)c12)c1ccc2c(c1)S(=O)(=O)CCC2 (single isomer, unassigned) [ASAP-0011247]",19 µM

# Experiment: Permeability Papp (AB) MDR1/MDCKII
# Settings: In vitro MDR1-MDCKII permeability, A to B, mean
row,Compound,papp_a_to_b_mean
1,CC(C)[C@H](Nc1ncnc(N)c1Cl)c1ccc2c(c1)S(=O)(=O)CCC2 (racemic) [ASAP-0010739],10.1 ×10⁻⁶ cm/s
2,"CC(C)[C@H](Nc1ncnc2[nH]c(-c3cnn(CC(N)=O)c3)cc12)c1ccc2c(c1)OCCO2 (single isomer, unassigned) [ASAP-0008450]",1.87 ×10⁻⁶ cm/s

# Same assay, conditions: In vitro MDR1-MDCKII permeability, A to B, no inhibitor
row,Compound,papp_a_to_b_mean
1,"CC(C)(C)[C@H](Nc1ncnc2[nH]c(-c3cnn(CC(N)=O)c3)cc12)c1ccc2c(n1)OCCO2 (single isomer, unassigned) [ASAP-0011159]",1.02 ×10⁻⁶ cm/s
2,"CC(C)[C@H](Nc1ncnc2[nH]cc(C(=O)NC3CC3)c12)c1ccc2c(c1)S(=O)(=O)CCC2 (single isomer, unassigned) [ASAP-0011247]",1.27 ×10⁻⁶ cm/s

# Same assay, conditions: In vitro MDR1-MDCKII permeability, recovery A to B, mean
row,Compound,perc_recovery_a_to_b_mean
1,CC(C)[C@H](Nc1ncnc(N)c1Cl)c1ccc2c(c1)S(=O)(=O)CCC2 (racemic) [ASAP-0010739],58.5%
2,"CC(C)[C@H](Nc1ncnc2[nH]c(-c3cnn(CC(N)=O)c3)cc12)c1ccc2c(c1)OCCO2 (single isomer, unassigned) [ASAP-0008450]",90.9%

# Same assay, conditions: In vitro MDR1-MDCKII permeability, recovery A to B, no inhibitor
row,Compound,perc_recovery_a_to_b_mean
1,"CC(C)(C)[C@H](Nc1ncnc2[nH]c(-c3cnn(CC(N)=O)c3)cc12)c1ccc2c(n1)OCCO2 (single isomer, unassigned) [ASAP-0011159]",95.8%
2,"CC(C)[C@H](Nc1ncnc2[nH]cc(C(=O)NC3CC3)c12)c1ccc2c(c1)S(=O)(=O)CCC2 (single isomer, unassigned) [ASAP-0011247]",71.5%
